{"source": "paper PMC2821452", "about": "(Synapse (New York, N.Y.), 2010)", "system": "opioid receptors", "experiment": "Affinity for opioid receptors", "format": "binding", "settings": "unpublished data"}
{"compound": "CC(=O)O[C@@H]1C[C@H]2C(C)(C)C(=O)C=C[C@]2(C)[C@H]2CC[C@@]3(C)[C@H](c4ccoc4)OC(=O)[C@H]4O[C@]43[C@@]21C", "note": "[Gedunin, (1S,3aS,4aR,4bS,5R,6aR,10aR,10bR,12aS)-5-(acetyloxy)-1-(3-furanyl)-1,5,6,6a,7,10a,10b,11,12,12a-decahydro-4b,7,7,10a,12a-pentamethyl-oxireno[c]phenanthro[1,2-d]pyran-3,8(3aH,4bH)-dione]", "values": [{"measurement": "affinity for opioid receptors", "value": "no affinity"}]}
